Measured values from patent US20070258989A1, “Immunomodulatory pharmaceutical composition and a process for preparation thereof” (Council of Scientific and Industrial Research, priority 2005, published 2007).

Key:
[1] = system: Normal Mice (Mus musculus); experiment: Immunostimulant (humorral) activity: haemagglutination (HA) antibody titre after immunisation with rabbit RBC's; assay type: in vivo; conditions: for Haemagglutination titre: mice fed 50-100 mg/Kg body weight, rabbit RBC antigen day 7 and 14, highest serum dilution showing agglutination
Method: A. For Humorral Immune Response • a) Treating the animals with the combination of the three coumarinolignoids at the dose in the range of 50-200 mg/Kg body weight for a period of 1-28 days. • b) Administering the animals with an antigen in the range of 0.01 to 0.3 ml of 5×10^9 RBC's in combination with a pharmaceutically acceptable diluent in a range 20-80% of the antigen used on day 7 for the initiation of antibody production. • c) Administering the same dosage regimen of the antigen and diluent as a booster dose after a period of 3-14 days from the day of primary immunization. • d) Withdrawing the blood using a capillary from the orbital plexus of the animal after a period of 18-25 days from the day of primary immunization. • e) Assessing the antibody production in the serum separated and isolated on 28th day through haemagglutination in a 96 well ‘U’ bottom microtitre plate at a titre ranging from 32-2048.
Normal healthy outbred mice, maintained under standard conditions (22±3° C., 12:12 hr light:dark cycle, pellet diet and soaked Bengal gram), 5 animals in each group were taken for the experiment. The animals were fed with the test compound at the dose rate of 50-100 mg/Kg body weight for a period of 1-28 days. Freshly collected and washed rabbit RBC's was used as an antigen which was used to immunize the animal on day 7 followed by the booster dose on day 14th. Blood was collected from the orbital plexus after 21 days and assessed for haemaggluting (HA) titre. The haemagglutination was carried upon using a serial two-fold dilution of the serum in 96 well ‘U’ bottom microtitre plates. The highest dilution showing visible agglutination was taken as the antibody titre.

[2] = system: Hepatocytes (primary cultured liver cells); experiment: SGOT quantification of cell culture supernatant of liver cells damaged with d-galactosamine; assay type: cell-based; conditions: compounds @ 1 μg/ml, 48-72 hrs incubation
Method: Hepatocytes were isolated and cultured into tissue culture plates and damaged with d-galactosamine @ 1 μg/ml and the cells were treated with the compounds under question. After 48-72 hrs of incubation the cell culture supernatant was taken for the estimation of SGOT levels which is indicative of the damage of the primary cultured liver cells.

SMILES	humorral immunity HA titre ([1]; 256 in normal control)	Haemagglutination titre ([1]; animal 1)	Haemagglutination titre ([1]; animal 2)	Haemagglutination titre ([1]; animal 3)	Haemagglutination titre ([1]; animal 4)	Haemagglutination titre ([1]; animal 5)	Haemagglutination titre ([1]; animal 7)	SGOT levels of the cell culture supernatant ([2]; d-Galactosamine concentration 0.01)	SGOT levels of the cell culture supernatant ([2]; d-Galactosamine concentration 0.1)	SGOT levels of the cell culture supernatant ([2]; d-Galactosamine concentration 1)	SGOT levels of the cell culture supernatant ([2]; d-Galactosamine concentration 10)
O=P1(N(CCCl)CCCl)NCCCO1 (centres unmarked) [Ledoxan, Cyclophosphamide]	0	0	0	0	0	0	0	–	–	–	–
N[C@H]1C(O)O[C@H](CO)[C@H](O)[C@@H]1O (stereo partly drawn) [d-galactosamine]	–	–	–	–	–	–	–	286	325	420	455
